{"source": "patent US5795907A", "about": "“Gastin and CCK receptor ligands” (James Black Foundation Limited, priority 1994, dated 1998)", "key": {"CCKB receptor": {"target": "T1, CCKB receptor (Mus musculus, UniProt P56481)", "T1 construct": "The cortex was dissected, weighed and homogenised in 40ml ice-cold buffer; tissue Charles River (supplier of the CD1 mice); host or cells: cerebral cortex membranes of male CD1 mice", "T1 sequence (P56481 1-453)": "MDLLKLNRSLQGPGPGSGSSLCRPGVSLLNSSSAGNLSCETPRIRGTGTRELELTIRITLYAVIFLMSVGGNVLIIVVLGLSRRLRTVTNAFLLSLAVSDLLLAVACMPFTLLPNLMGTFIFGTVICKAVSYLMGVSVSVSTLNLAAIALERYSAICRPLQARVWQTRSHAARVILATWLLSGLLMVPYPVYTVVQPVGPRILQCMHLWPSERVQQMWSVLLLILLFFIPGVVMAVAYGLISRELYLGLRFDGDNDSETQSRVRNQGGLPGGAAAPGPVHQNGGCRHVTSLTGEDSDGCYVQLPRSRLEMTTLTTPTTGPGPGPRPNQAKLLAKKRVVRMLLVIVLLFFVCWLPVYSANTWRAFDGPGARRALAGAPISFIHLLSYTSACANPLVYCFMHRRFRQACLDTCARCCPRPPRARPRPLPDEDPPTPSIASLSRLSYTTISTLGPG", "experiment": "CCKB receptor radioligand binding assay in mouse cortical membranes ([125I]-CCK8S)", "conditions": "[125I]-CCK8S 200 pM, 150 min at 21±3°", "method_in_brief": "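Cortical membranes from male CD1 mice in HEPES buffer (pH 7.2; NaCl, KCl, MgCl2, EDTA, bacitracin) were incubated with competing compound and [125I]-CCK8S (added as a 200 pM solution) for 150 min at 21±3°. Non-specific binding was defined with L-365,260. Bound tracer was separated by GF/B filtration and counted by gamma counting.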"}, "CCKA": {"target": "T2, CCKA (Cavia porcellus, UniProt Q63931)", "T2 construct": "The pancreatata were homogenised in 40 ml ice-cold HEPES buffer using a polytron; from tissue; host or cells: pancreas membranes of male Dunkin Hartley guinea-pigs", "T2 sequence (Q63931 1-430)": "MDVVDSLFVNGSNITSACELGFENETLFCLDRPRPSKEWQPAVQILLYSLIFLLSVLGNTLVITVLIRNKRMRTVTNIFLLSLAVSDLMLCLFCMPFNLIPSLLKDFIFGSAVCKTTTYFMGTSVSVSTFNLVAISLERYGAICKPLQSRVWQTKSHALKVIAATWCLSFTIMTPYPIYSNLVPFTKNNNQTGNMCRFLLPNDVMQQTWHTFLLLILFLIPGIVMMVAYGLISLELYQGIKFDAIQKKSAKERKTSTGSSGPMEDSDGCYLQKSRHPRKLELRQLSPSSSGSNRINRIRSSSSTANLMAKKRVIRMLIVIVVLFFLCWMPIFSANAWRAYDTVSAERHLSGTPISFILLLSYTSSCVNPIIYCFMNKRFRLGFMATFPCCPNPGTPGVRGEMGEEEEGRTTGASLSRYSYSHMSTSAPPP", "experiment": "CCKA radioligand binding assay in guinea-pig pancreas membranes ([125I]-CCK8(S))", "conditions": "PD134,308 present, 150 minutes at 21±3°", "method_in_brief": "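Male guinea-pig pancreas membranes (1 mg/ml wet tissue in HEPES pH 7.2, suspension containing 0.375 μM PD134,308) were incubated 150 min at 21±3° with [125I]-CCK8(S) ([…] added solution) and competitor. Non-specific binding used 100 nM L-364,718 (added solution). Bound radioligand was measured by GF/B filtration and gamma counting.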"}, "gastrin": {"target": "T3, gastrin (Rattus norvegicus, UniProt P30553)", "T3 construct": "The stomach was lowered into a jacketed organ bath containing 40 ml of buffered solution; from tissue; host or cells: isolated perfused whole stomach of immature rats (ca. 21 days old)", "T3 sequence (P30553 1-452)": "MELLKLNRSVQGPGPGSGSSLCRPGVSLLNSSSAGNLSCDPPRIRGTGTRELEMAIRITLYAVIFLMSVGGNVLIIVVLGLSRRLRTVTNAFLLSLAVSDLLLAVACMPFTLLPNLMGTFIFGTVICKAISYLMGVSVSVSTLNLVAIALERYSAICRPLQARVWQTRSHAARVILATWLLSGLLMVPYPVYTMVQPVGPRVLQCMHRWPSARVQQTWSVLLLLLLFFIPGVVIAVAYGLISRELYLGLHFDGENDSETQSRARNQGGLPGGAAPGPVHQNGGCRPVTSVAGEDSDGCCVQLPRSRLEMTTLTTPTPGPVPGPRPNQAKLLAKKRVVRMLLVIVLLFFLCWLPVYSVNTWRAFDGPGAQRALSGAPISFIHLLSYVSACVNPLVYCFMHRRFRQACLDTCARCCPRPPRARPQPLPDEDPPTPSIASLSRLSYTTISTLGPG", "experiment": "gastrin antagonist activity in an immature rat stomach assay (pentagastrin-stimulated acid secretion)", "conditions": "cumulative pentagastrin dose-response curves after 60 min with drug", "method_in_brief": "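Isolated lumen-perfused immature rat stomach (33-50 g, ca. 21 days) in 37° organ bath with 3×10^-8 M 5-methylfurmethide; acid secretion read by pH electrode in perfusate. Compound added to serosal bath after 120 min stabilisation; cumulative pentagastrin dose-response curves begun 60 min later and analysed by the Black et al. method.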"}}, "data": [{"smiles": "CC(=O)Oc1cc(OC(C)=O)c2cc(C(=O)N[C@@H](Cc3ccccc3)C(=O)Nc3cc(C(=O)O)cc(C(=O)O)c3)c(C(=O)NCC34CC5CC(CC(C5)C3)C4)cc2c1", "note": "[Example 53, 3-(1S-(3,5-dicarboxyphenylaminocarbonyl)-2-phenylethylaminocarbonyl)-2-(1-adamantanemethylaminocarbonyl)-5,7-diacetoxy-naphthalene]", "values": [{"measurement": "CCKB pKi", "setting": "CCKB receptor", "value": 8.1}, {"measurement": "CCKA pKi", "setting": "CCKA", "value": 6.1}, {"measurement": "Gastrin pKB", "setting": "gastrin", "value": 7.9}]}]}
